Peptide text beside a SMILES is read from it.
What was measured:
calmodulin [1] = molecular target: T1, calmodulin (Bos taurus, UniProt P62157); assay: kinetic analysis of N9 replacement peptides and multiple mutant by the methods of Examples 3 and 4; format: binding
Description: Real-time interaction analysis by surface plasmon resonance on a BIAcore instrument (Jonsson et al., 1991) was used to determine kon and koff constants. […] Different concentrations of calmodulin (5, 10, 20, 50 and 100 nM in the order of FIG. 2) were injected and allowed to associate with the peptides. Regeneration of the surface was achieved by injection of 5 μl TBS+[…] which dissociates the calmodulin-peptide complex.
30 nM fluorescein-labelled peptide/calmodulin complexes in gel buffer were competed at room temperature for different times with 30-fold excess of unlabelled peptide. The resulting mixtures were run on native PAGE gels and imaged by LUANA as described above. The bands in the image obtained were integrated using the LUANA software (Neri et al., 1996) and the corresponding intersities plotted versus time and fitted with a single exponential, from which koff constants were derived. In order to normalise band intensities against pipetting errors, the samples contained 6 nM free fluorescein which ran with the front. The fluorescein bands were integrated and used to normalise the calmodulin/fluorescent peptide complex band intensity. […] Incubation time in minutes is indicated under the lanes.
Hydrophobic donor residues (valine, phenylalanine and leucine) were chosen because it was hypothesized that these residues would contribute to the stability of the hydrophobic environment in the calmodulin core.

bovine brain calmodulin [2] = molecular target: T2, bovine brain calmodulin (Bos taurus, UniProt P62157); assay: stopped-flow measurement of kisom of calmodulin-binding peptides; settings: changes in tryptophan fluorescence
T2 construct: Complexes between calmodulin from bovine brain (1 μM, Sigma); purchased Sigma; host or cells: bovine brain (tissue-derived)
Description: It has been shown by Torok and Trentham (1994) that smooth muscle MLCK-derived peptides bind to calmodulin with a biphasic kinetic according to the scheme: [drawing 1]
in which P is the peptide, C is calmodulin, P-C is the first complex formed on association of P and C, which then undergoes a conformational isomerisation to P-C*.
(§1) For a kinetic and thermodynamic characterisation of the binding of the peptides of the present invention to bovine brain calmodulin, we have measured the kinetic isomerisation, association, and dissociation constants from which dissociation constants can be derived.
kisom constants have been measured by stopped-flow, detecting changes in tryptophan fluorescence for all the peptides except 3 (SEQ ID NO:4), in which the tryptophan is replaced by alanine.

bovine brain calmodulin [3] = molecular target: T2, bovine brain calmodulin; assay: BIAcore surface plasmon resonance, kon and koff of calmodulin binding to biotinylated peptides; settings: for koff: read-out: koff (s^-1)^B; for kon: read-out: kon (s^-1 M^-1)^B
Description: as §1
koff =k-1·k-2 /(k+2 +k-2)
Real-time interaction analysis by surface plasmon resonance on a BIAcore instrument (Jonsson et al., 1991) was used to determine kon and koff constants. Biotinylated peptides 1-17 were bound to commercially available streptavidin-coated microsensor chips (Pharmacia Biosensor), in order to achieve a surface capacity of 100-200 surface plasmon resonance units of calmodulin bound. Different concentrations of calmodulin (5, 10, 20, 50 and 100 nM in the order of FIG. 2) were injected and allowed to associate with the peptides. Regeneration of the surface was achieved by injection of 5 μl TBS+[…] which dissociates the calmodulin-peptide complex.

calmodulin [4] = molecular target: T1, calmodulin; assay: koff by competition experiments, native PAGE of fluorescein-labelled peptide/calmodulin complexes; format: binding, bovine; set-up: Complexes between calmodulin from bovine brain (1 μM, Sigma); purchased Sigma; host or cells: bovine brain (tissue-derived); settings: for koff: competition with 30-fold excess unlabelled peptide, room temperature, gel buffer, read-out: koff (s^-1)^C
Description: Complexes between calmodulin from bovine brain (1 μM, Sigma) and fluorescein-labelled sMLCK-derived peptides (as described in Table 1 (SEQ ID NOS:2-18)) were prepared in gel buffer (25% gel mix [4 g sucrose+1 mg bromophenol blue in water to give a 10 ml solution]+75% TBSC [50 mM TRIS pH 7.4, […]+50 μM CaCl2)] and run on a 15% native PAGE gel (5 ml 30% acrylamide-bisacrylamide solution+4.5 ml water+0.5 ml 3M Tris, pH 8.8, +1 μl 1M CaCl2 polymerised with 30 μl 25% ammonium persulphate and 9 μl TEMED) using 14.4 g/l glycine+3 g/l Tris-base+0.1 mM CaCl2 as running buffer. Peptides were labelled either with iodoacetamido fluorescein (Molecular Probes) or with iodoacetamido-LC-biotin (Pierce) essentially as previously described by Neri et al., (1995). In these conditions, the fluorescence of the positively-charged labelled peptides can be detected only if they form a stable complex with calmodulin.
In order to obtain an independent experimental confirmation if the BIAcore results, koff constants for peptides 1-17 towards calmodulin were determined by competition experiments. 30 nM fluorescein-labelled peptide/calmodulin complexes in gel buffer were competed at room temperature for different times with 30-fold excess of unlabelled peptide. The resulting mixtures were run on native PAGE gels and imaged by LUANA as described above. The bands in the image obtained were integrated using the LUANA software (Neri et al., 1996) and the corresponding intersities plotted versus time and fitted with a single exponential, from which koff constants were derived. In order to normalise band intensities against pipetting errors, the samples contained 6 nM free fluorescein which ran with the front. The fluorescein bands were integrated and used to normalise the calmodulin/fluorescent peptide complex band intensity. The results of competitions for peptides 1, 2, 3, 6, 9, and 14 are shown in this FIG. 3. Incubation time in minutes is indicated under the lanes.
The volumes of the bands were plotted versus competition time and fitted to a single exponential, from which koff values were derived.
The fastest competitions (peptides 1-4, 9 and 13, SEQ ID NOS:2-5,10, and 14) were over by the time the calmodulin/fluorescent peptide complex entered the gel (approximately 5-10 minutes from pipetting a molar excess of unlabelled peptide; FIG. 3), from which a condition on the off-rate constant koff >1×10^-3 s^-1 was derived. Even for these fast off-rates, complexes can be detected by native polyacrylamide gel electrophoresis because of the well known gel "cage effect" (Fried and Crothers, 1981; Garner and Revzin, 1981).

Structure (SMILES) | koff (calmodulin [1]; Table II, N9 replacement) [s⁻¹] | kon (calmodulin [1]; Table II, N9 replacement) [M⁻¹ s⁻¹] | kisom. (s^-1)^A (bovine brain calmodulin [2]) | koff (bovine brain calmodulin [3]; BIAcore) [s⁻¹] | kon (bovine brain calmodulin [3]; BIAcore) [M⁻¹ s⁻¹] | koff (calmodulin [4]) [s⁻¹] | other results
CC[C@H](C)[C@H](NC(=O)[C@H](CCCCN)NC(=O)[C@H](C)NC(=O)[C@H](Cc1ccccc1)NC(=O)[C@H](CCCNC(=N)N)NC(=O)[C@H](CC(N)=O)NC(=O)[C@H](C)NC(=O)[C@H](C)NC(=O)[C@H](C)NC(=O)[C@@H](NC(=O)[C@H](C)NC(=O)[C@@H](NC(=O)[C@H](Cc1ccccc1)NC(=O)[C@H](C)NC(=O)[C@H](CCCCN)NC(=O)[C@H](CCCCN)NC(=O)[C@H](Cc1c[nH]c2ccccc12)NC(=O)[C@H](CCCNC(=N)N)NC(=O)[C@H](C)NC(=O)[C@H](C)NC(=O)[C@H](C)NC(=O)[C@@H](N)CS)[C@@H](C)CC)C(C)C)C(=O)N[C@@H](C)C(N)=O [SEQ ID NO:19] (H-CAAARWKKAFIAVAAANRFAKIA-NH2; N-terminus and C-terminus assumed) | – | – | – | – | – | – | affinity for calmodulin compared with other peptides, in words (calmodulin [1]): comparable to that of peptide 6; koff (calmodulin [1]; multiple mutant): 5.9e-06 s⁻¹; kon (calmodulin [1]; multiple mutant): 610000 M⁻¹ s⁻¹
CC[C@H](C)[C@H](NC(=O)[C@H](Cc1ccccc1)NC(=O)[C@H](CC(C)C)NC(=O)[C@H](CCCCN)NC(=O)[C@H](CCCCN)NC(=O)[C@H](Cc1c[nH]c2ccccc12)NC(=O)[C@H](CCCNC(=N)N)NC(=O)[C@H](C)NC(=O)[C@H](C)NC(=O)[C@H](C)NC(=O)[C@@H](N)CS)C(=O)N[C@@H](C)C(=O)N[C@H](C(=O)N[C@@H](CO)C(=O)N[C@@H](C)C(=O)N[C@@H](C)C(=O)N[C@@H](CC(N)=O)C(=O)N[C@@H](CCCNC(=N)N)C(=O)N[C@@H](Cc1ccccc1)C(=O)N[C@@H](CCCCN)C(=O)N[C@@H](CCCCN)C(=O)N[C@H](C(=O)N[C@@H](CO)C(N)=O)[C@@H](C)CC)C(C)C [c] (H-CAAARWKKLFIAVSAANRFKKIS-NH2; N-terminus and C-terminus assumed) | 2.3e-05 | 1.1e+06 | – | – | – | – | –
CC[C@H](C)[C@H](NC(=O)[C@H](Cc1ccccc1)NC(=O)[C@H](Cc1ccccc1)NC(=O)[C@H](CCCCN)NC(=O)[C@H](CCCCN)NC(=O)[C@H](Cc1c[nH]c2ccccc12)NC(=O)[C@H](CCCNC(=N)N)NC(=O)[C@H](C)NC(=O)[C@H](C)NC(=O)[C@H](C)NC(=O)[C@@H](N)CS)C(=O)N[C@@H](C)C(=O)N[C@H](C(=O)N[C@@H](CO)C(=O)N[C@@H](C)C(=O)N[C@@H](C)C(=O)N[C@@H](CC(N)=O)C(=O)N[C@@H](CCCNC(=N)N)C(=O)N[C@@H](Cc1ccccc1)C(=O)N[C@@H](CCCCN)C(=O)N[C@@H](CCCCN)C(=O)N[C@H](C(=O)N[C@@H](CO)C(N)=O)[C@@H](C)CC)C(C)C [b] (H-CAAARWKKFFIAVSAANRFKKIS-NH2; N-terminus and C-terminus assumed) | 2.9e-05 | 290000 | – | – | – | – | –
CC[C@H](C)[C@H](NC(=O)[C@H](Cc1ccccc1)NC(=O)[C@@H](NC(=O)[C@H](CCCCN)NC(=O)[C@H](CCCCN)NC(=O)[C@H](Cc1c[nH]c2ccccc12)NC(=O)[C@H](CCCNC(=N)N)NC(=O)[C@H](C)NC(=O)[C@H](C)NC(=O)[C@H](C)NC(=O)[C@@H](N)CS)C(C)C)C(=O)N[C@@H](C)C(=O)N[C@H](C(=O)N[C@@H](CO)C(=O)N[C@@H](C)C(=O)N[C@@H](C)C(=O)N[C@@H](CC(N)=O)C(=O)N[C@@H](CCCNC(=N)N)C(=O)N[C@@H](Cc1ccccc1)C(=O)N[C@@H](CCCCN)C(=O)N[C@@H](CCCCN)C(=O)N[C@H](C(=O)N[C@@H](CO)C(N)=O)[C@@H](C)CC)C(C)C [a] (H-CAAARWKKVFIAVSAANRFKKIS-NH2; N-terminus and C-terminus assumed) | 0.00035 | 850000 | – | – | – | – | –
CC[C@H](C)[C@H](NC(=O)[C@H](CCCCN)NC(=O)[C@H](CCCCN)NC(=O)[C@H](Cc1ccccc1)NC(=O)[C@H](CCCNC(=N)N)NC(=O)[C@H](CC(N)=O)NC(=O)[C@H](C)NC(=O)[C@H](C)NC(=O)[C@H](CO)NC(=O)[C@@H](NC(=O)[C@H](C)NC(=O)[C@H](C)NC(=O)[C@H](Cc1ccccc1)NC(=O)[C@H](CC(N)=O)NC(=O)[C@H](CCCCN)NC(=O)[C@H](CCCCN)NC(=O)[C@H](Cc1c[nH]c2ccccc12)NC(=O)[C@H](CCCNC(=N)N)NC(=O)[C@H](C)NC(=O)[C@H](C)NC(=O)[C@H](C)NC(=O)[C@@H](N)CS)C(C)C)C(=O)N[C@@H](CO)C(N)=O [Peptide 8] (H-CAAARWKKNFAAVSAANRFKKIS-NH2; N-terminus assumed) | – | – | 1.1 (10.3) × 10^-1 s^-1 | 0.00023 | 920000 | 0.00047 | –
CC[C@H](C)[C@H](NC(=O)[C@H](Cc1ccccc1)NC(=O)[C@H](CC(N)=O)NC(=O)[C@H](CCCCN)NC(=O)[C@H](CCCCN)NC(=O)[C@H](Cc1c[nH]c2ccccc12)NC(=O)[C@H](CCCNC(=N)N)NC(=O)[C@H](C)NC(=O)[C@H](C)NC(=O)[C@H](C)NC(=O)[C@@H](N)CS)C(=O)N[C@@H](C)C(=O)N[C@H](C(=O)N[C@@H](CO)C(=O)N[C@@H](C)C(=O)N[C@@H](C)C(=O)N[C@@H](CC(N)=O)C(=O)N[C@@H](CCCNC(=N)N)C(=O)N[C@@H](Cc1ccccc1)C(=O)N[C@@H](CCCCN)C(=O)N[C@@H](CCCCN)C(=O)N[C@@H](C)C(=O)N[C@@H](CO)C(N)=O)C(C)C [Peptide 16] (H-CAAARWKKNFIAVSAANRFKKAS-NH2; N-terminus assumed) | – | – | 8.7 (11.5) × 10^-2 s^-1 | 0.00031 | 810000 | 0.00028 | –
CC[C@H](C)[C@H](NC(=O)[C@H](Cc1ccccc1)NC(=O)[C@H](CC(N)=O)NC(=O)[C@H](CCCCN)NC(=O)[C@H](CCCCN)NC(=O)[C@H](Cc1c[nH]c2ccccc12)NC(=O)[C@H](CCCNC(=N)N)NC(=O)[C@H](C)NC(=O)[C@H](C)NC(=O)[C@H](C)NC(=O)[C@@H](N)CS)C(=O)N[C@@H](C)C(=O)N[C@H](C(=O)N[C@@H](CO)C(=O)N[C@@H](C)C(=O)N[C@@H](C)C(=O)N[C@@H](CC(N)=O)C(=O)N[C@@H](CCCNC(=N)N)C(=O)N[C@@H](Cc1ccccc1)C(=O)N[C@@H](C)C(=O)N[C@@H](CCCCN)C(=O)N[C@H](C(=O)N[C@@H](CO)C(N)=O)[C@@H](C)CC)C(C)C [Peptide 14] (H-CAAARWKKNFIAVSAANRFAKIS-NH2; N-terminus assumed) | – | – | 1.6 (10.2) × 10^-2 s^-1 | 0.00014 | 2.5e+06 | 0.00015 | increase in kon with respect to the wild-type peptide 1 (bovine brain calmodulin [3]; BIAcore): 4-5 fold; improvement in Kd / affinity for calmodulin over the wild type peptide, in words (bovine brain calmodulin [3]; Table 1): greatest improvement in affinity; dissociation from calmodulin in competition with excess unlabelled peptide, in words (calmodulin [4]; FIG. 3): intermediate off-rate

— patent US6316409A, “Modified ligands of calcium-dependent binding proteins” (Medical Research Council, priority 1996, dated 2001)
